Laboratory results from patent US20110263542A1, “METHODS TO TREAT PAIN USING AN ALPHA-2 ADRENERGIC AGONIST AND AN ENDOTHELIN ANTAGONIST” (ENGOGENX, priority 2008, published 2011).
Entries after “also recorded” stand apart in the source; their conditions may differ. Counter-ions that a name gives are not always drawn. Like-named read-outs stand apart in the source and are kept apart here.

What was measured:
[1] = cited from earlier work
[2] = cited from earlier work; remark: listed apart in the source
rats = details: for analgesic effect of agent alone (in words): clonidine 1 mg/kg ip; for effect of antagonist on clonidine induced potentiation of morphine analgesia / effect of antagonist on clonidine induced potentiation of oxycodone analgesia: idazoxan 2 mg/kg ip or yohimbine 2 mg/kg ip 15 min before clonidine 1 mg/kg ip; for effect of antagonist on clonidine induced potentiation of morphine analgesia: morphine 8 mg/kg sc
[3] = test system: patients undergoing cesarean delivery; details: epidural clonidine 75 μg; cited from earlier work
[4] = test system: patients, immediately after spinal fusion; details: cited from earlier work
mice = experiment: Tail-flick latency (antinociception) in mice
Experimental: Animals: Male Swiss Webster mice weighing 25 to 30 g (Harlan, Indianapolis, IN) were used. The animals were housed five per cage in a room with controlled ambient temperature (23±1° C.), humidity (50±10%) and twelve-hour light/dark cycle (6.00 AM to 6.00 PM). Food and water were made available ad libitu Experiments were carried out after the animals had been acclimated to this environment for at least 4 days.
Statistics: All data values are presented as mean±SEM. ANOVA followed by post-hoc test (Bonferroni's Test) were used to test differences within and between groups. A level of P<0.05 was considered significant.
Application of theiinal stimulation (focused light) to the tail of an animal provoked withdrawal of the tail by a brief vigorous movement. The reaction time of this movement was recorded as tail-flick latency by using an analgesiometer. […] A cutoff time of 10 sec was used to prevent damage to the tail. Tail flick latency values were subtracted from the basal latency and the differential values were used to calculate the area under the curve (AUC).

Body temperature in mice = assay type: in vivo; details: clonidine 0.3 mg/kg with 0.5% CMC or sulfisoxazole 250, 500 or 1000 mg/kg; after 3 hours; FIG. 6B
[5] = test system: patients having coronary artery bypass graft surgery; details: cited from earlier work

4-amino-N-(3,4-dimethyloxazol-5-yl)-benzenesulfonamide [Sulfisoxazole]
solubility (in words) [1]: highly soluble
concentration in the cerebrospinal fluid (in words) ([2]; average, relative to blood): about a third of blood concentration
excreted in urine by kidney ([2]; in 24 hours): 95%
binding to plasma proteins (in words) ([2]; in vivo): extensively bound to plasma proteins

Cc1noc(NS(=O)(=O)c2cccc3c(N(C)C)cccc23)c1C [BMS182874, 5-(dimethylamino)-N-(3,4-dimethyl-5-isoxazolyl)-1-naphthalene sulfonamide]
analgesic effect of agent alone (in words) (rats; BMS182874 50 μg icv): did not produce any analgesic effect

Clc1cccc(Cl)c1NC1=NCCN1 [Clonidine, N-(2,6-dichlorophenyl)-4,5-dihydro-1H-imidazol-2-amine]
effect on duration of analgesia produced by 2 mg of morphine [3]: doubled
change in mean arterial pressure ([4]; clonidine group at T11): −26+/−2%
mean arterial pressure ([4]; clonidine group): 74+/−2 mmHg
morphine requirement, dose for each patient ([4]; clonidine group, placebo 10.8+/−1.2): 3.8 ± 1 mg
pain score (visual analog scale 0-100 mm) after treatment ([4]; clonidine i.v. 5 micrograms/kg 1st h then 0.3 microgram/kg/h for 11 h, decreased from 42+/−5, mean+/−standard error): 26+/−3 mm
analgesic effect of agent alone (in words) (rats; BMS182874 50 μg icv): produced analgesia; also recorded: significant
effect on morphine analgesia in rats treated with BMS182874 (rats; clonidine 0.3 and 1.0 mg/kg ip, BMS182874 50 μg icv, morphine 4 mg/kg sc): increase in morphine analgesia
effect on oxycodone analgesia in rats treated with BMS182874 (rats; clonidine 0.3 and 1.0 mg/kg ip, BMS182874 50 μg icv, oxycodone 4 mg/kg sc): increase in oxycodone analgesia
AUC0→240 min determined from tail flick latency (mice; Example 3, FIG. 1B: morphine 4 mg/kg s.c., clonidine 2 mg/kg i.p. 30 min before morphine or vehicle, mean±SEM, N=6): 68.4±12.3
AUC0→240 min of tail flick latency (mice; Example 5 Study 2, FIG. 4: clonidine 2 mg/kg i.p., sulfisoxazole 1000 mg/kg oral, morphine 8 mg/kg s.c., mean±SEM, N=6): increase in AUC
tail flick latency (in words) (mice; clonidine 0.3 mg/kg i.p. plus 0.5% CMC p.o., by 6 hours): approximately the level of vehicle treated animals
body temperature, lowest value (from 37° C.) (Body temperature in mice): approximately 32 °C

c1ccc2c(c1)OCC(C1=NCCN1)O2 (centres unmarked) [Idazoxan, 2-(1,4-benzodioxan-2-yl)-2-imidazoline]
effect of antagonist on clonidine induced potentiation of morphine analgesia (rats): did not affect; also recorded: No effect
effect of antagonist on clonidine induced potentiation of oxycodone analgesia (rats; oxycodone 4 mg/kg sc): Blocked

CN1CC[C@]23c4c5ccc(O)c4O[C@H]2[C@@H](O)C=C[C@H]3[C@H]1C5.O=S(=O)(O)O [Morphine, 7,8-didehydro-4,5α-epoxy-17-methylmorphinan-3,6α-diol sulfate]
morphine dosage in the first 24 h, median (25th-75th percentiles) ([5]; i.v. PCA morphine group (control)): 37 (30.5-51) mg
morphine dosage in the first 24 h, median (25th-75th percentiles) ([5]; intrathecal morphine 4 microg/kg group, plus i.v. PCA morphine): 40.5 (15-61.5) mg

COC(=O)[C@@H]1[C@H]2C[C@H]3c4[nH]c5ccccc5c4CCN3C[C@@H]2CC[C@@H]1O [Yohimbine, 17α-hydroxy-yohimban-16α-carboxylate hydrochloride]
effect of antagonist on clonidine induced potentiation of morphine analgesia (rats; hydrochloride): Blocked
effect of antagonist on clonidine induced potentiation of oxycodone analgesia (rats; oxycodone 4 mg/kg sc, hydrochloride): Blocked
